Test results published in ChEMBL document CHEMBL1139945, “Synthesis and biological evaluation of an 123I-labeled bicyclic nucleoside analogue (BCNA) as potential SPECT tracer for VZV-tk reporter gene imaging” (Bioorg Med Chem Lett, 2007).

Molecular target: T1, Thymidine kinase (Varicella-zoster virus (strain Dumas) (HHV-3) (Human herpesvirus 3), UniProt P09250)
T1 sequence (P09250 whole entry): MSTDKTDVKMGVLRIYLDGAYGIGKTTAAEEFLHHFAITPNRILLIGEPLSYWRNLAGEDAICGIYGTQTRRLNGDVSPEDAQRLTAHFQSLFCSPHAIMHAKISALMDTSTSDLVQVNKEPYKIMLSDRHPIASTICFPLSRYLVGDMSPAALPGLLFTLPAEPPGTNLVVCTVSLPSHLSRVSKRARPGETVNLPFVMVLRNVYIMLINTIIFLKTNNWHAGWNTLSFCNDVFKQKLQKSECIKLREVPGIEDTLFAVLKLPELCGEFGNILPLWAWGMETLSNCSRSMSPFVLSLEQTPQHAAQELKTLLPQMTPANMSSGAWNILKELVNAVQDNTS
Assay: Inhibition of VZV thymidine kinase
Design: species or system Human alphaherpesvirus 3

## O=c1nc2oc(-c3ccc(I)c(O)c3)cc2cn1[C@H]1C[C@H](O)[C@@H](CO)O1
  IC50: 4.2 µM

## O=c1nc2oc(-c3cccc(O)c3)cc2cn1[C@H]1C[C@H](O)[C@@H](CO)O1
  IC50: 2.6 µM
